Experimental data taken from patent US10253002B2, “Compounds and methods of treating infections” (Neoculi Pty Ltd., priority 2013, dated 2019).
Converted amounts (≈) assume the structure as drawn. “And” between values parts separate entries of the source, which are not always exact repeats. Equal entries are not always repeated.

Key:
[1] = system: S. aureus isolates (HA-MRSA, CA-MRSA, methicillin-susceptible staphylococci); assay: Kirby-Bauer disc diffusion resistotyping, Example 4; assay type: cell-based, Staphylococcus aureus; conditions: for Total isolates resistant (Kirby-Bauer disc diffusion): all isolates (n = 30)
Description: Antibiotic-susceptibility profiling of the isolate collection was undertaken using Kirby-Bauer disc diffusion, as recommended by the Clinical and Laboratory Standards Institute (CLSI) on Mueller-Hinton agar. Isolates were grown overnight on SBA at 37° C. Colonies were suspended in physiological saline. Turbidity was adjusted to a 0.5 McFarland standard and suspensions were spread over the medium. Antibiotic discs according to Table 9 below were transferred onto the inoculated medium and analysed after 24 h incubation at 37° C.

[2] = system: Staphylococcus pseudintermedius isolates (MSSP and MRSP); assay: Disk diffusion and Epsilometer susceptibility testing, Example 6; assay type: cell-based
[3] = system: S. pneumoniae isolates; assay: Disk diffusion susceptibility (CLSI/EUCAST), Example 5; assay type: cell-based, Streptococcus pneumoniae
Description: Isolate susceptibility to 12 different antimicrobials (Table 16) was determined by CLSI and European Committee on Antimicrobial Susceptibility Testing (EUCAST) methods. Antimicrobials were selected based upon the CLSI and EUCAST guidelines. Standardised bacterial suspensions were spread onto MHSBA using a sterile cotton swab. Bacterial suspensions from of Streptococcus pneumoniae were standardised to an OD6O0 between 0.08 and 0.1 using a spectrophotometer and then diluted 1:20. Bacterial colonies were taken from an O/N horse blood agar plate. To ensure the purity of the 1:20 bacterial suspension, 50 μL was spread plated onto horse blood agar and incubated O/N at 37° C. with 5% CO2. The CFU was calculated and compared to the initial plate counts. Antibiotic disks (Purchased from Sigma Aldrich) were placed using a disk dispenser (Purchased from Oxoid) according to CLSI standards. MHSBA plates were incubated for 16 h-24 h at 37° C. in 5% CO2. Zones of complete inhibition were measured in triplicate to the nearest millimeter using a ruler on natural light-reflected growth, and the mode was represented as the diameter for each isolate. Pneumococcal isolates were categorised as sensitive, intermediate (I) or resistant (R) by CLSI standards and quality control (QC) ranges (Table 16).

[4] = system: MRSA; assay: Broth microdilution MIC, Example 7 (NCL812 and analogues); assay type: cell-based, Staphylococcus aureus; conditions: 24 hours
Method in brief: (§1)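 MICs in μg/ml were read as growth inhibition by eye, checked at 600 nm absorbance against drug-free wells, following CLSI broth microdilution. Strains: two MRSA, two VRE; duplicates, repeated once more when results diverged beyond one dilution step.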

[5] = system: VRE; assay: as above; assay type: cell-based, Enterococcus spp.
Method in brief: as §1

[6] = system: Escherichia coli; assay: as above; assay type: cell-based; conditions: 24 hours
[7] = system: Pseudomonas aeruginosa; assay: as above; assay type: cell-based; conditions: 24 hours

CC1(C)S[C@@H]2[C@H](NC(=O)Cc3ccccc3)C(=O)N2[C@H]1C(=O)O [Penicillin-G]
isolates resistant (Kirby-Bauer disc diffusion) ([1]; CA-MRSA (n = 10)): 100.00% | isolates resistant (Kirby-Bauer disc diffusion) ([1]; HA-MRSA (n = 10)): 100.00% | isolates resistant (Kirby-Bauer disc diffusion) ([1]; Methicillin-susceptible staphylococci (n = 10)): 50.00% | Total isolates resistant (Kirby-Bauer disc diffusion) [1]: 83.33% | Total isolates resistant (Kirby-Bauer disc diffusion) ([1]; listed as penicillin-G): 83.33%

CC1(C)S[C@@H]2[C@H](NC(=O)[C@H](N)c3ccc(O)cc3)C(=O)N2[C@H]1C(=O)O [amoxicillin]
MRSP isolates susceptible ([2]; 13 MRSP isolates): 23%

COc1c(N2C[C@@H]3CCCN[C@@H]3C2)c(F)cc2c(=O)c(C(=O)O)cn(C3CC3)c12 [moxifloxacin]
MRSP isolates susceptible ([2]; 13 MRSP isolates): 92%

CC(=O)OCC1=C(C(=O)O)N2C(=O)[C@@H](NC(=O)Cc3cccs3)[C@H]2SC1 [cephalothin]
MRSP isolates susceptible ([2]; 13 MRSP isolates): 62%

CO[C@@]1(NC(=O)Cc2cccs2)C(=O)N2C(C(=O)O)=C(COC(N)=O)CS[C@@H]21 [cefoxitin]
MRSP isolates susceptible ([2]; 13 MRSP, cefoxitin resistance break point set at ≤30 mm): 7.7% | MRSP isolates susceptible ([2]; 13 MRSP, cefoxitin resistance breakpoint set at ≤24 mm): 23% and 38% | ZD ([2]; isolate S1P1): 0 mm | ZD, Adl ([2]; isolate S1P1): 0 mm | ZD ([2]; isolate S2P2): 21 mm | ZD, Adl ([2]; isolate S2P2): 21 mm | ZD ([2]; isolate S3P3): 21 mm | ZD, Adl ([2]; isolate S3P3): 24 mm | ZD ([2]; isolate S4P4): 29 mm | ZD, Adl ([2]; isolate S4P4): 20 mm | ZD ([2]; isolate S5P5): 26 mm | ZD, Adl ([2]; isolate S5P5): 30 mm | ZD ([2]; isolate S6P6): 22 mm | ZD, Adl ([2]; isolate S6P6): 26 mm | ZD ([2]; isolate S7P7): 21 mm | ZD, Adl ([2]; isolate S7P7): 19 mm | ZD ([2]; isolate S8P8): 21 mm | ZD, Adl ([2]; isolate S8P8): 22 mm | ZD ([2]; isolate S9P9): 23 mm | ZD, Adl ([2]; isolate S9P9): 26 mm | ZD ([2]; isolate S10P10): 21 mm | ZD, Adl ([2]; isolate S10P10): 25 mm | ZD ([2]; isolate S11P11): 22 mm | ZD, Adl ([2]; isolate S11P11): 21 mm | ZD ([2]; isolate S12P12): 24 mm | ZD, Adl ([2]; isolate S12P12): 24 mm | ZD ([2]; isolate S13P13): 36 mm | ZD, Adl ([2]; isolate S13P13): 40 mm | ZD ([2]; isolate S14P14): 34 mm | ZD, Adl ([2]; isolate S14P14): 32 mm | ZD ([2]; isolate S15P15): 33 mm | ZD, Adl ([2]; isolate S15P15): 34 mm | ZD ([2]; isolate S16P16): 38 mm | ZD, Adl ([2]; isolate S16P16): 42 mm | ZD ([2]; isolate S17P17): 36 mm | ZD, Adl ([2]; isolate S17P17): 38 mm | ZD ([2]; isolate S18P18): 25 mm | ZD, Adl ([2]; isolate S18P18): 40 mm | ZD ([2]; isolate S19P19): 36 mm | ZD, Adl ([2]; isolate S19P19): 38 mm | ZD ([2]; isolate S20P20): 38 mm | ZD, Adl ([2]; isolate S20P20): 36 mm | ZD ([2]; isolate S21P21): 36 mm | ZD, Adl ([2]; isolate S21P21): 40 mm | ZD ([2]; isolate S22P22): 34 mm | ZD, Adl ([2]; isolate S22P22): 35 mm | ZD ([2]; isolate S23P23): 29 mm | ZD, Adl ([2]; isolate S23P23): 26 mm

CC[C@H]1OC(=O)[C@H](C)[C@@H](O[C@H]2C[C@@](C)(OC)[C@@H](O)[C@H](C)O2)[C@H](C)[C@@H](O[C@@H]2O[C@H](C)C[C@H](N(C)C)[C@H]2O)[C@](C)(OC)C[C@@H](C)C(=O)[C@H](C)[C@@H](O)[C@]1(C)O [Clarithromycin]
disk diffusion zone diameter ([3]; A66.1): 30 mm | disk diffusion zone diameter ([3]; D39): 32 mm | disk diffusion zone diameter ([3]; EF3030): 32 mm | disk diffusion zone diameter ([3]; L82016): 34 mm | disk diffusion zone diameter ([3]; P9): 40 mm | disk diffusion zone diameter ([3]; P21): 38 mm | disk diffusion zone diameter ([3]; TIGR4): 35 mm | disk diffusion zone diameter ([3]; WCH16): 33 mm | disk diffusion zone diameter ([3]; WCH43): 28 mm | disk diffusion zone diameter ([3]; WCH46): 39 mm | disk diffusion zone diameter ([3]; WCH57): 39 mm | disk diffusion zone diameter ([3]; WCH77): 37 mm | disk diffusion zone diameter ([3]; WCH86): 36 mm | disk diffusion zone diameter ([3]; WCH89): 31 mm | disk diffusion zone diameter ([3]; WCH92): 27 mm | disk diffusion zone diameter ([3]; WCH137): 33 mm | disk diffusion zone diameter ([3]; WCH158): 38 mm | disk diffusion zone diameter ([3]; WCH184): 10 mm | disk diffusion susceptibility category ([3]; WCH184 (Table 18)): R | disk diffusion zone diameter ([3]; WCH211): 33 mm | disk diffusion zone diameter ([3]; WU2): 31 mm

S=C(N/N=C/c1cccc(Cl)c1)N/N=C/c1cccc(Cl)c1 [NCL070]
MIC (μg/ml) at 24 hours, MRSA 1 ([4]; isolate MRSA 1, 1st and 2nd replicate rows): >128 µg/mL | MIC (μg/ml) at 24 hours, MRSA 2 ([4]; isolate MRSA 2, 1st and 2nd replicate rows): >128 µg/mL | activity against VRE among analogues ([5]; MIC testing, two VRE strains): greatest activity | MIC (μg/ml) at 24 hours, VRE 1 ([5]; isolate VRE 1, 1st and 2nd replicate rows): >128 µg/mL | MIC (μg/ml) at 24 hours, VRE 2 ([5]; isolate VRE 2, 1st and 2nd replicate rows): 32 µg/mL (≈ 91.1 µM) | MIC (μg/ml) at 24 hours, E. coli ([6]; 1st and 2nd replicate rows): >128 µg/mL | MIC (μg/ml) at 24 hours, P. aeruginosa ([7]; 1st and 2nd replicate rows): >128 µg/mL

Cl.N=C(NN=Cc1cccc(Br)c1)NN=Cc1cccc(Br)c1 [NCL 131]
MIC (μg/ml) at 24 hours, MRSA 1 ([4]; MRSA 1, duplicate lines per compound): >128 µg/mL | MIC (μg/ml) at 24 hours, MRSA 2 ([4]; MRSA 2, duplicate lines per compound): >128 µg/mL | MIC (μg/ml) at 24 hours, VRE 1 ([5]; VRE 1, duplicate lines per compound): 4 µg/mL | MIC (μg/ml) at 24 hours, VRE 2 ([5]; VRE 2, duplicate lines per compound): >128 µg/mL | MIC (μg/ml) at 24 hours, E. coli ([6]; E. coli, duplicate lines per compound): >128 µg/mL | MIC (μg/ml) at 24 hours, P. aeruginosa ([7]; P. aeruginosa, duplicate lines per compound): >128 µg/mL
